Results as given in PMC12218520, “Oxyresveratrol suppressed melanogenesis, dendrite formation, and melanosome transport in melanocytes via regulation of the MC1R/cAMP/MITF pathway” (Scientific Reports, 2025).
pIC50: −log10 of the molar value. Like-named read-outs stand apart in the source and are kept apart here. One block for each molecule: values may come before it.

Columns and labels:
human tyrosinase [1] = molecular target: T1, human tyrosinase (Homo sapiens, UniProt P14679); assay: L-DOPA oxidation assay with recombinant human tyrosinase, absorbance at […] nm; assay type: biochemical
T1 construct: gene TYR; recombinant human tyrosinase (OriGene TP321797L)
T1 sequence (P14679 19-529): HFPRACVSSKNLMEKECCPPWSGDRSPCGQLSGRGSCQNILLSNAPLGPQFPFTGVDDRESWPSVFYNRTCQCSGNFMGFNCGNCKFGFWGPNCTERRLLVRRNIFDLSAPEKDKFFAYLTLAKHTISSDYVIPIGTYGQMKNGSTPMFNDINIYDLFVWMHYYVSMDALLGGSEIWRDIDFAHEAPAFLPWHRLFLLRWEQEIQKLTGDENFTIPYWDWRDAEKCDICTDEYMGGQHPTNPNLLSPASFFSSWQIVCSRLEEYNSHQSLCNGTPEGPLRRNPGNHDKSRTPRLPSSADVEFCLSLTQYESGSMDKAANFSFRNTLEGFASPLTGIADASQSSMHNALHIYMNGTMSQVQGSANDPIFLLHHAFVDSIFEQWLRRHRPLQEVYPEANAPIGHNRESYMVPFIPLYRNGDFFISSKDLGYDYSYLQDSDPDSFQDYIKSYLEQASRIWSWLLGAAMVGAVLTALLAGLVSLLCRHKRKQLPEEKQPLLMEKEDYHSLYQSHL

human tyrosinase [2] = molecular target: T1, human tyrosinase; assay: substrate of the tyrosinase assay ([…]), absorbance at […] nm; assay type: biochemical

- IC50 (human tyrosinase [1]; read-out: IC50 (μg/mL) (converted)): 88.5 µM
SMILES: CC(c1ccccc1)c1ccc(O)cc1O (stereo not drawn) [compound 3, Phenylethyl resorcinol]

SMILES: N[C@@H](Cc1ccc(O)c(O)c1)C(=O)O [L-DOPA]
- substrate of the tyrosinase assay (0.5 mM), absorbance at 492 nm (human tyrosinase [2]): Inhibition of human tyrosinase activity by oxyresveratrol, resveratrol, phenylethyl resorcinol, and glabridin in vitro, using L-DOPA as substrate.

SMILES: Oc1ccc(/C=C/c2cc(O)cc(O)c2)cc1 [compound 2, Resveratrol]
- pIC50 (human tyrosinase [1]): 4.24
